Among the test systems are CAKI-1 renal; HT29 colon; OVCAR-8 ovarian; IGROV1 ovarian; MDA-MB-231 breast; SNB-19 CNS; MDA-MB-435; MCF7 breast; NCI-H23 lung; SF-539 CNS.
Holding throughout (experiment): NCI tumour cell line growth inhibition, 48 h

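Step 1: Grow cells in 96-well plates. Step 2: Expose to compound for 48 hours at 5 concentrations. Step 3: Interpolate endpoints linearly; if unreached, use highest concentration. Abbreviation: GI50, concentration required for 50% inhibition of growth. Definition used: TGI = concentration required for complete inhibition of growth.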

For the molecule `CC1(C)N=C(N)N=C(N)N1c1ccc(CCC(=O)Nc2ccc(S(=O)(=O)F)cc2)cc1`, the GI50 in the assay on CAKI-1 renal is 2.33 µM; in the assay on HT29 colon, 0.362 µM; with OVCAR-8 ovarian, 5.08 µM; with IGROV1 ovarian, 0.0723 µM; in the assay on MDA-MB-231 breast, 23.1 µM; with SNB-19 CNS, 7.16 µM. For the same molecule, the GI50 in the assay on MDA-MB-435 is 0.461 µM; in the assay on MCF7 breast, 1.8 µM; in the assay with NCI-H23 lung, 2.19 µM; in the assay on SF-539 CNS, 2.94 µM. Besides, the TGI in the assay with CAKI-1 renal, in the assay on HT29 colon, in the assay on OVCAR-8 ovarian, in the assay on IGROV1 ovarian, in the assay with MDA-MB-231 breast and in the assay on SNB-19 CNS was over 100 µM each time. In addition, the TGI in the assay with MDA-MB-435 was over 100 µM; with MCF7 breast, over 100 µM; in the assay with NCI-H23 lung, over 100 µM; with SF-539 CNS it was over 94.1 µM.
Take `CCCCCOc1ccc(/C=N/Nc2cc(C)nc3ccc(Cl)cc23)cc1`: the GI50 with CAKI-1 renal was 1.64 µM; in the assay with HT29 colon, 1.44 µM; in the assay on OVCAR-8 ovarian, 1.98 µM; in the assay on IGROV1 ovarian it was 1.91 µM; with MDA-MB-231 breast it was 1.71 µM; in the assay on SNB-19 CNS it was 1.87 µM. Also, the GI50 in the assay with MDA-MB-435 is 1.75 µM; in the assay with MCF7 breast it was 1.64 µM; in the assay with NCI-H23 lung, 1.78 µM; in the assay with SF-539 CNS, 1.86 µM. Moreover, the TGI worked out at 3.03 µM in the assay on CAKI-1 renal; 2.81 µM in the assay with HT29 colon; 4.23 µM in the assay on OVCAR-8 ovarian; 3.6 µM with IGROV1 ovarian; 3.23 µM in the assay on MDA-MB-231 breast; 3.41 µM in the assay with SNB-19 CNS. For the same molecule, the TGI with MDA-MB-435 was found to be 3.21 µM; in the assay on MCF7 breast it was 3.4 µM; in the assay on NCI-H23 lung, 3.47 µM; with SF-539 CNS, 3.3 µM.
Turning to `N#CC1c2ccccc2C=CN1C(=O)CCCl` (stereo not given), the GI50 in the assay with CAKI-1 renal was 8.38 µM; with HT29 colon, 11.1 µM; with OVCAR-8 ovarian, 14.4 µM; with IGROV1 ovarian it was 6.68 µM; in the assay with MDA-MB-231 breast, 8.78 µM; in the assay with SNB-19 CNS it was 20.1 µM. For the same molecule, the GI50 in the assay on MDA-MB-435 was 12.4 µM; with MCF7 breast, 2.6 µM; in the assay with NCI-H23 lung, 17.6 µM; in the assay on SF-539 CNS, 8.06 µM. For the same molecule, the TGI was found to be 22.7 µM in the assay on CAKI-1 renal; 26.2 µM in the assay on HT29 colon; 30.6 µM in the assay on OVCAR-8 ovarian; 13.8 µM in the assay on IGROV1 ovarian; 23.8 µM with MDA-MB-231 breast; 52.9 µM in the assay with SNB-19 CNS. Besides, the TGI is 27.1 µM with MDA-MB-435, 12.5 µM with MCF7 breast, 40.9 µM with NCI-H23 lung and 22.3 µM with SF-539 CNS.
With `Nc1nc2c(c3cnccc13)C(c1ccc(Cl)c(Cl)c1)Cc1cnccc1-2` (stereo not given), the GI50 with CAKI-1 renal was 0.658 µM; in the assay with HT29 colon, 0.37 µM; with OVCAR-8 ovarian it was 2.69 µM; with IGROV1 ovarian, 1.85 µM; in the assay with MDA-MB-231 breast it was 0.937 µM; in the assay on SNB-19 CNS it was 0.65 µM. Also, the GI50 is 0.241 µM in the assay with MDA-MB-435, 0.305 µM with MCF7 breast, 1.14 µM with NCI-H23 lung and 0.486 µM with SF-539 CNS. Moreover, the TGI in the assay with CAKI-1 renal stood at 13.4 µM; in the assay on HT29 colon, 3.31 µM; with OVCAR-8 ovarian, 15 µM; with IGROV1 ovarian, 17.8 µM; in the assay on MDA-MB-231 breast it was 14.8 µM; in the assay on SNB-19 CNS, 13.5 µM. Moreover, the TGI in the assay with MDA-MB-435 was determined as 0.646 µM; in the assay with MCF7 breast, 11.7 µM; in the assay on NCI-H23 lung, 9.13 µM; in the assay with SF-539 CNS it was 4.29 µM.
For `Nc1ncc(Cc2ccc3c(c2)OCO3)c(N)n1`, the TGI with CAKI-1 renal, in the assay on HT29 colon, in the assay on OVCAR-8 ovarian, in the assay with IGROV1 ovarian, in the assay on MDA-MB-231 breast and in the assay with SNB-19 CNS was over 100 µM each time. Moreover, the TGI in the assay on MDA-MB-435, in the assay with MCF7 breast, in the assay with NCI-H23 lung and in the assay with SF-539 CNS was over 100 µM throughout.
`O=C1/C(=C\c2ccccc2)CN(C(=O)CCN2CCCCC2)C/C1=C/c1ccccc1`: the TGI with CAKI-1 renal worked out at 3.74 µM; in the assay with HT29 colon it was 2.03 µM; in the assay with OVCAR-8 ovarian it was 5.47 µM; with IGROV1 ovarian, 4.48 µM; with MDA-MB-231 breast, 3.29 µM; with SNB-19 CNS it was 4.57 µM. Further, the TGI with MDA-MB-435 is 6.37 µM; in the assay on MCF7 breast it was 1.86 µM; with NCI-H23 lung it was 4.51 µM; in the assay on SF-539 CNS it was 5.52 µM.
As for `CNCc1cccc2c1OCCOCCOCCN(C)S(=O)(=O)c1ccc(cc1)-c1cnc(N)c(n1)C(=O)N2`, the GI50 in the assay on CAKI-1 renal is 0.98 µM; in the assay with HT29 colon, 1.08 µM; in the assay on OVCAR-8 ovarian, 1.88 µM; in the assay on IGROV1 ovarian, 0.58 µM; in the assay with MDA-MB-231 breast, 2.28 µM; in the assay with SNB-19 CNS it was 2.72 µM. In addition, the GI50 was 1.28 µM in the assay on MDA-MB-435, 0.0566 µM in the assay with MCF7 breast, 2.47 µM in the assay on NCI-H23 lung and 0.534 µM in the assay on SF-539 CNS. The TGI was determined as 17.9 µM with CAKI-1 renal; 4.92 µM with HT29 colon; 4.46 µM with OVCAR-8 ovarian; 12.8 µM with IGROV1 ovarian; 6.44 µM in the assay with MDA-MB-231 breast; 8.47 µM in the assay on SNB-19 CNS. Further, the TGI was determined as 2.69 µM in the assay on MDA-MB-435, 17.9 µM in the assay with MCF7 breast, 27.9 µM with NCI-H23 lung and 1.98 µM with SF-539 CNS.
For `CCN(C)c1nc(N(C)CC)c2nc(N(C)CC)nc(N(C)CC)c2n1`, the TGI in the assay on CAKI-1 renal, with HT29 colon, with OVCAR-8 ovarian, with IGROV1 ovarian, with MDA-MB-231 breast and in the assay with SNB-19 CNS was over 100 µM in each case. Also, the TGI with MDA-MB-435, in the assay on MCF7 breast, with NCI-H23 lung and in the assay with SF-539 CNS was over 100 µM each time.
